Test results from patent US5561131A, “Defaunation method” (Mallinckrodt Veterinary, Inc., priority 1991, dated 1996).
Several values for one entry are separate records, joined by “and”; a condition that tells them apart may be missing. Identical values can stand only once.

Assays:
[1] = system: mice; test: Mouse safety assessment; format: in vivo; conditions: oral gavage, 830, 415 and 217 mg/kg, observed for 2 days
Experimental: Compounds of Table 1 chosen for testing in sheep were first tested in mice for signs of toxicity. Because sheep are approximately 5 times more sensitive than mice to compounds dosed orally, the dose rates applied to mice were 5 times greater than the target dose rate of 500 ppm. in rumen liquor (83 mg/kg live weight) used for sheep. Each compound was screened at three different dose levels, high (830 mg/kg), medium (415 mg/kg) and low (217 mg/kg).
252 mg of compound was used for dilution into a high medium and low dose rate. 252 mg of compound was mixed with 3 ml of G1284 solution (4% w/v ethoxylated castor oil and 0.05% w/v simethicone), to form the high dose composition. The medium dose composition was formed by diluting 1.5 ml of the high dose with 1.5 ml of G1284 solution. The low dose composition was formed by diluting 1.5 ml of the medium dose with 1.5 ml of G1284 solution. Before the high dose could be diluted it was first manually ball milled in an effort to produce a fine suspension of the compound.
All mice were weighed before dosing to calculate the appropriate dose rate. The calculation for dose rate was: [formula]
Each mouse was dosed using the Gavage method. With this method the mouse is dosed orally by way of an angled hypodermic needle (18 g) with a smooth spherical end. It is gently placed down the esophagus. All care must be taken not to force the needle and injure the esophagus or dose into the lungs.
Observations were made at 10, 30, 60 and 120 minutes after dosing, then every 1 or 2 hours for the first 6 hours.
Mice were usually observed for 2 days.
Typically, few compounds fell within the poor classification. The majority of compounds tested were either in the fair or good classification.

[2] = system: rumen protozoa; test: Defaunation using single or 2 or 3 repeated doses in sheep; format: in vivo; conditions: individual sheep
Experimental: Sheep were fed a diet of 900 g oaten chaff daily, except that food and water were withheld for 19 hours before and 24 hours after dosing. Each dose was prepared by mixing compound 37 with 20 ml of ethanol followed by 200 ml of centrifuged rumen liquor, to give a dose of 167 mg/kg body weight, administered by rumen tube. Rumen protozoa were counted weekly following the final treatment.
Table 9: The effect of administering compound 37 (from table 1) on mean protozoal numbers in rumen in sheep.

SMILES | Mouse Safety Assessment [1] | Protozoal Count ([2]; 2 doses 1 wk apart at 167 mg/kg/dose, week 0, 167 mg/kg) | Protozoal Count ([2]; 2 doses 1 wk apart at 167 mg/kg/dose, week 1) | Protozoal Count ([2]; 2 doses 1 wk apart at 167 mg/kg/dose, week 2) | Protozoal Count ([2]; 2 doses 1 wk apart at 167 mg/kg/dose, week 3) | Protozoal Count ([2]; 2 doses 1 wk apart at 167 mg/kg/dose, week 4) | Protozoal Count ([2]; 3 doses 1 wk apart at 167 mg/kg per dose, week 0, 167 mg/kg) | Protozoal Count ([2]; 3 doses 1 wk apart at 167 mg/kg per dose, week 1) | Protozoal Count ([2]; 3 doses 1 wk apart at 167 mg/kg per dose, week 2) | Protozoal Count ([2]; 3 doses 1 wk apart at 167 mg/kg per dose, week 3) | Protozoal Count ([2]; 3 doses 1 wk apart at 167 mg/kg per dose, week 4) | Protozoal Count ([2]; single dose 167 mg/kg, week 0, 167 mg/kg) | Protozoal Count ([2]; single dose 167 mg/kg, week 1) | Protozoal Count ([2]; single dose 167 mg/kg, week 2, 167 mg/kg) | Protozoal Count ([2]; single dose 167 mg/kg, week 3)
Cc1ccc(Nc2nc(Cl)nc(Cl)n2)cc1Cl [Compound 27, 2,4 dichloro-6-(3 chloro-4-methylanilino)-s-triazine] | Fair (>2 mice sick) | – | – | – | – | – | – | – | – | – | – | – | – | – | –
Clc1nc(Cl)nc(Nc2ccccc2Cl)n1 [Compound 37, 2,4-dichloro-6-(2-chloroanilino)-1,3,5-triazine] | – | 64,000 number/mL of rumen fluid and 68,500 number/mL of rumen fluid and 94,000 number/mL of rumen fluid | 0 number/mL of rumen fluid | 0 number/mL of rumen fluid | 0 number/mL of rumen fluid | 0 number/mL of rumen fluid | 259,000 number/mL of rumen fluid and 242,500 number/mL of rumen fluid and 122,500 number/mL of rumen fluid | 0 number/mL of rumen fluid | 0 number/mL of rumen fluid | 0 number/mL of rumen fluid | 0 number/mL of rumen fluid | 151,500 number/mL of rumen fluid and 300,000 number/mL of rumen fluid and 149,500 number/mL of rumen fluid | 0 number/mL of rumen fluid | 370,000 number/mL of rumen fluid and 0 number/mL of rumen fluid and 4,500 number/mL of rumen fluid | 88,800 number/mL of rumen fluid
